The Ki is a measure of affinity in units of concentration, obtained from inhibition or displacement.

One assay concerns the target T1, D3 receptor (Chlorocebus aethiops, UniProt P52703).
T1 construct: expressed in transfected cells; host or cells: COS cells
The assay is described as follows: D3 receptor binding activity (pellets of COS cells, 3H-YM 09151-2). Also noted: species or system African Green monkey. Here is the method: (§1) Pellets of COS cells containing recombinantly produced D2 or D3 receptors from African Green monkey were used for the assays. The sample is homogenized in 100 volumes (w/vol) of 0.05M Tris HCl buffer at 4° C. and pH 7.4. The sample is then centrifuged at 30,000×g and resuspended and rehomogenized. The sample is then centrifuged as described and the final tissue sample is frozen until use. The tissue is resuspended 1:20 (wt/vol) in 0.05M Tris HCl buffer containing 100 mM NaCl.
(§2) Incubations are carried out at 48° C. and contain 0.4 ml of tissue sample, 0.5 nM ^3 H-YM 09151-2 and the compound of interest in a total incubation of 1.0 ml. Nonspecific binding is defined as that binding found in the presence of 1 mM spiperone; without further additions, nonspecific binding is less than 20% of total binding. The binding characteristics of representative compounds of the invention for D2 and D3 receptor subtypes are shown in Table 1 for rat striatal homogenates.

The next assay concerns the target T2, D2 receptor (Chlorocebus aethiops, UniProt P52702).
T2 construct: expressed in transfected cells; host or cells: COS cells
The assay is described as follows: D2 receptor binding activity (pellets of COS cells, 3H-YM 09151-2). Also noted: species or system African Green monkey. Conditions: 0.5 nM 3H-YM 09151-2, pH 7.4; nonspecific with 1 mM spiperone. As for the experimental part: as §1, §2

Setting [1] is: 0.5 nM 3H-YM 09151-2, pH 7.4, nonspecific with 1 mM spiperone, read-out: D3 Ki.

Structures can show the parent of a compound that is named as a salt. Where two headings read alike, the source gives them in different places.

T2 sequence (P52702 whole entry): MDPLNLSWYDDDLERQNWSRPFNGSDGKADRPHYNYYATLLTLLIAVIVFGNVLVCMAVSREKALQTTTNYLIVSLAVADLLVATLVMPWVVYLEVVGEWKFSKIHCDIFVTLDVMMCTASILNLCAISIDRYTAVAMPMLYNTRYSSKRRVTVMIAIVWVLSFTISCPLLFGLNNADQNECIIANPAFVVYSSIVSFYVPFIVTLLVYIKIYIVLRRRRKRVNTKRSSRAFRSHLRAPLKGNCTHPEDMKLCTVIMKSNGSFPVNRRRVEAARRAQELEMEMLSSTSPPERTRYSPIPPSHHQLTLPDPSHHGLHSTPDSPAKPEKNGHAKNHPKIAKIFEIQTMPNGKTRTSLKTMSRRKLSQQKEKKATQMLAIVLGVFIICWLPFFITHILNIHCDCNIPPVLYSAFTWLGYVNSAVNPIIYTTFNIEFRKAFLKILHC
T1 sequence (P52703 whole entry): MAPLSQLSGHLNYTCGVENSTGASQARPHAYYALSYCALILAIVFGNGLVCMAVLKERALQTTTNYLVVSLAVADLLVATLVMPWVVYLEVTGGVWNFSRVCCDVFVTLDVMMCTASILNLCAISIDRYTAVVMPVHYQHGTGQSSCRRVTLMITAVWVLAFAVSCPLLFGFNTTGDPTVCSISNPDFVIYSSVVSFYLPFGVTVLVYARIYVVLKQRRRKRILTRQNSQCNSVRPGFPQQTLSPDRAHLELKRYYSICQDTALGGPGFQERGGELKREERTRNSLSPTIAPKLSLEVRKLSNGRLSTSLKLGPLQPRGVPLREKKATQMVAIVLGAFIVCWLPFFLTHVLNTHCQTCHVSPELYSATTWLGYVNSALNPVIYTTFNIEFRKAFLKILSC

Consider `O=C(NCCCCN1CCc2c(ccc3ccccc23)C1)c1cnc2ccccc2c1` [Compound 1, N-{4-(1,2,3,4-tetrahydrobenz[f]isoquinolin-2-yl)butyl}-quinoline-3-carboxamide hydrochloride], for which the Ki on D3 receptor (setting [1]) is 8 nM; at D2 receptor, 127 nM.
On the same counts, the results for `O=C(NCCCCN1CCc2c(ccc3ccccc23)C1)c1ccc2sc3ccccc3c2c1` [Compound 7, N-{4-(1,2,3,4-tetrahydrobenz[f]isoquinolin-2-yl)butyl}-dibenzothiophene-2-carboxamide hydrochloride] are 5 nM and 377 nM.
`O=C(NCCCCN1CCc2c(ccc3ccccc23)C1)c1cnc2ccccc2n1` [Compound 8, N-{4-(1,2,3,4-tetrahydrobenz[f]isoquinolin-2-yl)butyl}-quinoxaline-2-carboxamide hydrochloride]: the Ki was found to be 12 nM at D3 receptor (setting [1]) and 250 nM at D2 receptor.
Consider `O=C(NCCCCN1CCC2=C(CCc3ccccc32)C1)c1ccc(-c2ccccc2)cc1` [Compound 13, N-{4-(1,2,3,4,5,6-hexahydrobenz[f]isoquinolin-2-yl)butyl}-biphenyl-4-carboxamide hydrochloride], for which the Ki at D3 receptor is 10 nM; on D2 receptor, 362 nM.
In the case of `O=C(NCCCCN1CCN2c3ccccc3CCC2C1)c1ccc2c(c1)Cc1ccccc1-2` (stereo not drawn) [Compound 14, N-{4-(2,3,4,4a,5,6-hexahydro-1H-pyrazino[1,2-a]quinolin-2-yl)butyl}-fluorene-2-carboxamide hydrochloride], the inhibition constant (Ki) stood at 9 nM on D3 receptor (setting [1]) and 198 nM at D2 receptor.
As for “N-{4-(1,2,3,4-tetrahydrobenz[f]isoquinolin-2-yl)butyl}-fluoren-9-one-3-carboxamide hydrochloride [Compound 6]”, the Ki on D3 receptor (setting [1]) was 17 nM; on D2 receptor, 165 nM.

The record behind these values is US5688950A, “Tricyclic aminoalkylcarboxamides; novel dopamine D3 receptor subtype specific ligands” (Neurogen Corporation, priority 1996, dated 1997).
